Measurements as given in patent US9969758B2, “Antimicrobial compounds” (BIOMERIEUX, priority 2014, dated 2018).
≈ marks a conversion by molar mass, not a printed value.

Key:
[1] = system: Acinetobacter baumannii ATCC 19606; test: MIC by agar dilution, single strains; format: cell-based; settings: ATCC19606, 22 hours of incubation, read-out: Minimum inhibitory concentration (MIC)
Method: (§1) Determining the minimum inhibitory concentrations (MIC). All the MICs were determined using an agar dilution method. This required use of a medium without a defined antagonist (peptone-free), prepared as described previously with the inclusion of 2% horse blood lysed with saponin, 25.0 μg/mL of NAD and 25.0 μg/mL of hemin [17]. The compounds tested were dissolved in sterile deionised water and incorporated into the agar medium in a concentration range of 0.0031 to 8.0 μg/mL (0.016 to 32 μg/mL for gram-positive bacteria). All the isolates were prepared at a density equivalent to 0.5 McFarland units in sterile deionised water using a densitometer (approximately 1.5×10^8 CFU/mL), and then diluted to 1 for 15. An aliquot of 1 μL of each diluted suspension was then placed onto plates with a multispot inoculator to give the final recommended inoculation of 10 000 CFU/spot. The MICs of fosfomycin were determined by the same method, except that the IsoSensitest medium (Oxoid, Basingstoke, United Kingdom) was used, plus 25.0 μg/mL of glucose-6-phosphate (Sigma, Poole, United Kingdom) and an extended range of fosfomycin concentrations. All the dishes (including the antimicrobial-free controls) were incubated for 22 hours at 37° C. All the tests were performed on at least two independent replicates in order to examine the reproducibility.

[2] = system: Burkholderia cepacia ATCC 25416; test: MIC by agar dilution, single strains; format: cell-based; settings: ATCC25416, 22 hours of incubation, read-out: Minimum inhibitory concentration (MIC)
Method: as §1

[3] = system: Enterobacter cloacae NCTC 11936; test: MIC by agar dilution, single strains; format: cell-based; settings: NCTC11936, 22 hours of incubation, read-out: Minimum inhibitory concentration (MIC)
Method: as §1

[4] = system: Enterococcus faecalis NCTC 775; test: MIC by agar dilution, single strains; format: cell-based; settings: NCTC775, 22 hours of incubation, read-out: Minimum inhibitory concentration (MIC)
Method: as §1

[5] = system: Enterococcus faecium NCTC 7171; test: MIC by agar dilution, single strains; format: cell-based; settings: NCTC7171, 22 hours of incubation, read-out: Minimum inhibitory concentration (MIC)
Method: as §1

[6] = system: Escherichia coli NCTC 10418; test: MIC by agar dilution, single strains; format: cell-based; settings: NCTC10418, 22 hours of incubation, read-out: Minimum inhibitory concentration (MIC)
Method: as §1

[7] = system: Escherichia coli NCTC 12241; test: MIC by agar dilution, single strains; format: cell-based; settings: NCTC12241, 22 hours of incubation, read-out: Minimum inhibitory concentration (MIC)
Method: as §1

[8] = system: Klebsiella pneumoniae NCTC 9528; test: MIC by agar dilution, single strains; format: cell-based; settings: NCTC9528, 22 hours of incubation, read-out: Minimum inhibitory concentration (MIC)
Method: as §1

[9] = system: Listeria monocytogenes NCTC 11994; test: MIC by agar dilution, single strains; format: cell-based; settings: NCTC11994, 22 hours of incubation, read-out: Minimum inhibitory concentration (MIC)
Method: as §1

[10] = system: Providencia rettgeri NCTC 7475; test: MIC by agar dilution, single strains; format: cell-based; settings: NCTC7475, 22 hours of incubation, read-out: Minimum inhibitory concentration (MIC)
Method: as §1

[11] = system: Pseudomonas aeruginosa NCTC 10662; test: MIC by agar dilution, single strains; format: cell-based; settings: NCTC10662, 22 hours of incubation, read-out: Minimum inhibitory concentration (MIC)
Method: as §1

[12] = system: Salmonella enteritidis NCTC 6676; test: MIC by agar dilution, single strains; format: cell-based; settings: Salmonella enterica, 22 hours of incubation, read-out: Minimum inhibitory concentration (MIC)
Method: as §1

[13] = system: Salmonella typhimurium NCTC 74; test: MIC by agar dilution, single strains; format: cell-based; settings: Salmonella enterica, 22 hours of incubation, read-out: Minimum inhibitory concentration (MIC)
Method: as §1

[14] = system: Serratia marcescens NCTC 10211; test: MIC by agar dilution, single strains; format: cell-based; settings: NCTC10211, 22 hours of incubation, read-out: Minimum inhibitory concentration (MIC)
Method: as §1

[15] = system: Staphylococci epidermidis NCTC 11047; test: MIC by agar dilution, single strains; format: cell-based; settings: 22 hours of incubation, read-out: Minimum inhibitory concentration (MIC)
Method: as §1

[16] = system: Staphylococcus aureus NCTC 11939 (SARM); test: MIC by agar dilution, single strains; format: cell-based; settings: NCTC11939, 22 hours of incubation, read-out: Minimum inhibitory concentration (MIC)
Method: as §1

[17] = system: Staphylococcus aureus NCTC 6571; test: MIC by agar dilution, single strains; format: cell-based; settings: NCTC6571, 22 hours of incubation, read-out: Minimum inhibitory concentration (MIC)
Method: as §1

[18] = system: Yersinia enterocolitica NCTC 11176; test: MIC by agar dilution, single strains; format: cell-based; settings: NCTC11176, 22 hours of incubation, read-out: Minimum inhibitory concentration (MIC)
Method: as §1

[19] = system: E. coli (53); test: MIC by agar dilution; format: cell-based, Escherichia coli; settings: E. coli (53)
Excerpt: (§2) Bacterial isolates. […] These included Citrobacter freundii (n=5), other species of Citrobacter (n=4), Enterobacter aerogenes (n=1), Enterobacter cloacae (n=27), Escherichia coli (n=53), Klebsiella oxytoca (n=5), Klebsiella pneumoniae (n=87), Kluyvera spp (n=1), Proteus mirabilis (n=8), Providencia rettgeri (n=2), Salmonella spp (n=3), and Serratia marcescens (n=1). Among these 197 isolates, there were 128 (65%) carbapenemase producers, including; 87 with NDM-1, 9 with IMP, 11 with KPC, 14 with OXA-48 and 7 with VIM. The majority of the carbapenemase producers jointly produced broad-spectrum β-lactamases (BSBL) or cephalosporinases (AmpC β-lactamases), but the latter are not documented for the sake of clarity.
as §1

[20] = system: K. pneumoniae (87); test: MIC by agar dilution; format: cell-based, Klebsiella pneumoniae; settings: Klebsiella pneumoniae, K. pneumoniae (87)
Excerpt: as §2, §1

[21] = system: E. cloacae (27); test: MIC by agar dilution; format: cell-based, Enterobacter cloacae; settings: E. cloacae (27)
Excerpt: as §2, §1

[22] = system: AmpC (22); test: MIC by agar dilution; format: cell-based, Enterobacteriaceae
Excerpt: as §2, §1

[23] = system: All S. aureus (50); test: MIC by agar dilution; format: cell-based, Staphylococcus aureus; settings: All S. aureus (50)
Excerpt: (§3) A collection of 50 isolates of Staphylococci aureus included 36 strains of methicillin-resistant S. aureus (MRSA) frequently encountered in Europe, including strains isolated in Belgium, Finland, France, Germany and the United Kingdom. Another strain of MRSA, NCTC 11939, was included as a control, as well as a methicillin-sensitive control (NCTC 6571). Twelve other isolates of methicillin-sensitive Staphylococcus aureus (MSSA) recently collected from blood cultures were also included. Finally, 50 isolates of enterococci included two control strains (Enterococcus faecalis NCTC 755 and Enterococcus faecium NCTC 7171) and 48 isolates originating from clinical samples obtained from at least three different hospitals. The clinical isolates included E. faecalis (n=10), E. faecium (n=33), Enterococcus casseliflavus (n=3), Enterococcus gallinarum (n=2).
as §1

[24] = system: All Enterococci (50); test: MIC by agar dilution; format: cell-based; settings: All Enterococci (50)
Excerpt: as §3, §1

[25] = system: glycopeptide-resistant enterococci; test: MIC by agar dilution; format: cell-based; settings: GRE (43)
Excerpt: as §3, §1

[26] = system: methicillin-resistant Staphylococcus aureus; test: MIC by agar dilution; format: cell-based
Excerpt: as §3, §1

[27] = system: methicillin-sensitive Staphylococcus aureus; test: MIC by agar dilution; format: cell-based; settings: MSSA (13)
Excerpt: as §3, §1

[28] = system: E. faecalis (11); test: MIC by agar dilution; format: cell-based, Enterococcus faecalis; settings: Enterococcus faecalis, E. faecalis (11)
Excerpt: as §3, §1

[29] = system: E. faecium (34); test: MIC by agar dilution; format: cell-based, Enterococcus faecium; settings: Enterococcus faecium, E. faecium (34)
Excerpt: as §3, §1

[30] = system: Enterobacteriaceae (197); test: MIC by agar dilution; format: cell-based; settings: Enterobacteriaceae (197)
Excerpt: as §2, §1

[31] = system: Enterobacteriaceae with a broad-spectrum β-lactamase; test: MIC by agar dilution; format: cell-based
Excerpt: as §2, §1

[32] = system: carbapenemase-producing Enterobacteriaceae; test: MIC by agar dilution; format: cell-based
Excerpt: as §2, §1

[33] = read-out: Modal MIC (most frequent MIC)
[34] = Staphylococcus aureus, read-out: MIC50
[35] = Staphylococcus aureus, read-out: MIC90
[36] = Staphylococcus aureus, read-out: Modal MIC (most frequent MIC)

CCC[C@H](N)C(=O)N[C@@H](C)C(=O)NC(C)P(=O)(O)O (stereo partly drawn) [compound I, L-norvalinyl-L-alanyl-D/L-fosfalin]
MIC [1]: > 8 µg/mL
MIC [2]: > 8 µg/mL
MIC [3]: > 8 µg/mL
MIC [4]: 0.063 µg/mL (≈ 0.213 µM)
MIC [5]: 1 µg/mL (≈ 3.39 µM)
MIC [6]: 1 µg/mL (≈ 3.39 µM)
MIC [7]: 1 µg/mL (≈ 3.39 µM)
MIC [8]: 0.25 µg/mL (≈ 0.847 µM)
MIC [9]: > 8 µg/mL
MIC [10]: > 8 µg/mL
MIC [11]: > 8 µg/mL
MIC [12]: > 8 µg/mL
MIC [13]: > 8 µg/mL
MIC [14]: 0.25 µg/mL (≈ 0.847 µM)
MIC [15]: 1 µg/mL (≈ 3.39 µM)
MIC [16]: > 8 µg/mL
MIC [17]: 1 µg/mL (≈ 3.39 µM)
MIC [18]: 0.125 µg/mL (≈ 0.423 µM)

C[C@H](NC(=O)[C@H](CCl)NC(=O)[C@@H](N)CCl)P(=O)(O)O [β-Cl-Ala-β-Cl-Alafosfalin, β-chloro-L-alanyl-β-chloro-L-alanyl-L-1-aminoethylphosphonic acid]
MIC Range [19]: ≤0.031-1 ^ μg/mL
MIC50 ([19]; Escherichia coli, read-out: MIC50): 0.25 µg/mL (≈ 0.744 µM)
MIC90 ([19]; Escherichia coli, read-out: MIC90): 1 µg/mL (≈ 2.98 µM)
MIC ([19]; Escherichia coli, read-out: Modal MIC (most frequent MIC)): 0.25 µg/mL (≈ 0.744 µM)
MIC50 ([20]; read-out: MIC50): 4 µg/mL (≈ 11.9 µM)
MIC90 ([20]; read-out: MIC90): > 8 µg/mL
MIC [20, 33]: 4 µg/mL (≈ 11.9 µM)
MIC Range [21]: 0.25 to 8 µg/mL
MIC50 ([21]; Enterobacter cloacae, read-out: MIC50): 1 µg/mL (≈ 2.98 µM)
MIC90 ([21]; Enterobacter cloacae, read-out: MIC90): 4 µg/mL (≈ 11.9 µM)
MIC ([21]; Enterobacter cloacae, read-out: Modal MIC (most frequent MIC)): 1 µg/mL (≈ 2.98 µM)
MIC90 [22]: > 8 µg/mL
MIC [22, 33]: > 8 µg/mL
MIC Range [23]: 2 to 16 µg/mL
MIC50 [23, 34]: 16 µg/mL (≈ 47.6 µM)
MIC90 [23, 35]: 16 µg/mL (≈ 47.6 µM)
MIC [23, 36]: 16 µg/mL (≈ 47.6 µM)
MIC50 ([24]; read-out: MIC50): 8 µg/mL (≈ 23.8 µM)
MIC90 ([24]; read-out: MIC90): 16 µg/mL (≈ 47.6 µM)
MIC [24, 33]: 8 µg/mL (≈ 23.8 µM)
MIC50 ([25]; read-out: MIC50): 8 µg/mL (≈ 23.8 µM)
MIC90 ([25]; read-out: MIC90): 16 µg/mL (≈ 47.6 µM)
MIC Range ([26]; MRSA (37)): 2 to 16 µg/mL
MIC ([26]; Staphylococcus aureus, MRSA, read-out: Modal MIC (most frequent MIC)): 16 µg/mL (≈ 47.6 µM)
MIC50 ([26]; Staphylococcus aureus, MRSA (37), read-out: MIC50): 16 µg/mL (≈ 47.6 µM)
MIC90 ([26]; Staphylococcus aureus, MRSA (37), read-out: MIC90): 16 µg/mL (≈ 47.6 µM)
MIC Range [27]: 4 to 16 µg/mL
MIC50 [27, 34]: 16 µg/mL (≈ 47.6 µM)
MIC90 [27, 35]: 16 µg/mL (≈ 47.6 µM)
MIC [27, 36]: 16 µg/mL (≈ 47.6 µM)
MIC50 ([28]; read-out: MIC50): 0.25 µg/mL (≈ 0.744 µM)
MIC90 ([28]; read-out: MIC90): 4 µg/mL (≈ 11.9 µM)
MIC [28, 33]: 0.25 µg/mL (≈ 0.744 µM)
MIC50 ([29]; read-out: MIC50): 8 µg/mL (≈ 23.8 µM)
MIC90 ([29]; read-out: MIC90): 8 µg/mL (≈ 23.8 µM)
MIC [29, 33]: 8 µg/mL (≈ 23.8 µM)
MIC50 ([30]; read-out: MIC50): 2 µg/mL (≈ 5.95 µM)
MIC90 ([30]; read-out: MIC90): > 8 µg/mL
MIC [30, 33]: 4 µg/mL (≈ 11.9 µM)
MIC50 [31]: 4 µg/mL (≈ 11.9 µM)
MIC90 [31]: > 8 µg/mL
MIC [31, 33]: > 8 µg/mL
MIC50 [32]: 2 µg/mL (≈ 5.95 µM)
MIC90 [32]: 8 µg/mL (≈ 23.8 µM)
MIC [32, 33]: 4 µg/mL (≈ 11.9 µM)
